Where no end group is shown, it is not given here. [ ]: non-standard residue; d: D form. Cy5 = Cy5 fluorophore label; code o = not defined here; QSY21 = quencher dye
Columns and labels:
[1] = tested on: pulmonary protease activity; assay: In vivo activity-based nanosensors, urinary reporters by LC-MS/MS; design: species or system mouse; settings: within 3 days of treatment initiation; 20 mg/kg daily oral gavage
Protocol: The urinary reporter glutamate-fibrinopeptide B (Glu-Fib) was mass barcoded for detection by mass spectrometry. Nanosensors were dosed (50 μL total volume, 20 μM each nanosensor) in mannitol buffer (0.28 M mannitol, 5 mM sodium phosphate monobasic, 15 mM sodium phosphate dibasic, pH 7.0-7.5) by intratracheal intubation. Anesthesia was induced by isoflurane inhalation, and mice were monitored during recovery. For intratracheal instillation, a volume of 50 μL was administered by passive inhalation following intratracheal intubation with a 22G flexible plastic catheter (Exel). […]
LC-MS/MS was performed by Syneos Health using a Sciex™ 6500 triple quadrupole instrument. […] Samples were extracted by solid-phase extraction and analyzed by multiple reaction monitoring by LC-MSMS to quantify concentration of each Glu-Fib mass variant. Analyte quantities were normalized to a spiked-in internal standard and concentrations were calculated from a standard curve using peak area ratio (PAR) to the internal standard. […]
Analyses of urinary reporter data were conducted using the analytic pipelines of the protease activity analysis (PAA) package [52], a publicly available Python package designed to process and visualize enzymatic activity datasets. […] Ten independent train-test trials were run for each classification problem, and classification performance was evaluated with ROC statistics. […]

[2] = tested on: Eml4-Alk lungs; assay: In vivo administration of QZ1-(PEG2K), IVIS imaging of explanted lungs; design: species or system mouse; settings: two hours post intravenous injection
Protocol: QZ1 (Table 4) was reconstituted to 1 mg/mL in water, then reacted with mPEG-Maleimide, MW 2000 g/mol (Laysan Bio), for PEG coupling via maleimide-thiol chemistry. After completion of the reaction, the final compound was purified using HPLC. All reactions were monitored using HPLC connected with mass spectrometry. […] Eml4-Alk mice (11-12 weeks post tumor induction) and age- and sex-matched C57BL/6J healthy controls (Jackson Labs; 18-22 weeks) were anesthetized using isoflurane inhalation (Zoetis). QZ1-(PEG2K) (4.5 nmoles in 0.9% NaCl) was administered intravenously via tail vein injection. Two hours after probe injection, mice were imaged on an in vivo imaging system (IVIS, PerkinElmer) by exciting Cy5 at 640 nm and measuring emission at 680 nm. Mice were subsequently euthanized by isoflurane overdose followed by cervical dislocation. Lungs were dissected and explanted for imaging via IVIS. Fluorescence signal intensity was quantified using the Living Image software (PerkinElmer, v4).

[3] = tested on: CD45-, CD11b- cells from lungs; assay: Activity-based cell sorting / flow cytometry after QZ1 administration; assay type: in vivo, mouse
Protocol: Eml4-Alk mice (10-12 weeks post tumor induction) and age- and sex-matched C57BL/6J healthy controls (Jackson Labs; 18-22 weeks) were euthanized by isoflurane overdose, and lungs were excised, separated into lobes, and kept in a round cell culture dish (ThermoFisher) on ice. For tumor-bearing lungs, tumors were separated from healthy tissue using forceps and scissors under a dissecting microscope, and the dissected tumors and surrounding tissue were kept in 5 mL Eppendorf tubes (Sigma Aldrich) for preparation into single-cell suspension. Tissue was minced using Noyes spring scissors (Fine Science Tools) until pieces were less than 1 cm in size, with the visual appearance of ground meat. […]
Single cell lung suspensions from Eml4-Alk mice administered QZ1 were stained with the following antibodies (catalog number, vendor, clone, fluorophore, dilution): CD44 (563508, BD, IM7, BV605, 1:200), CD105 (564746, BD, MJ7/18, BV786, 1:200), Ly6-A/E (12-5981-81, ThermoFisher, D7, PE, 1:200), CD11b (557657, BD, M1/70, APC-Cy7, 1:200), CD45 (566439, BD, 30-F11, AF488, 1:400), and EpCAM (118216, BioLegend™, G8.8, PE-Cy7, 1:200). […] Flow cytometry data was analyzed by the FlowJo software (Treestar). […]

[4] = target: T1, recombinant fibroblast activation protein (FAP) (Homo sapiens, UniProt Q12884); assay: Quenched probe cleavage by recombinant FAP (fluorescence activation); assay type: biochemical; settings: quenched probe Q1 incorporating S1
T1 sequence (Q12884 26-760 limits assumed): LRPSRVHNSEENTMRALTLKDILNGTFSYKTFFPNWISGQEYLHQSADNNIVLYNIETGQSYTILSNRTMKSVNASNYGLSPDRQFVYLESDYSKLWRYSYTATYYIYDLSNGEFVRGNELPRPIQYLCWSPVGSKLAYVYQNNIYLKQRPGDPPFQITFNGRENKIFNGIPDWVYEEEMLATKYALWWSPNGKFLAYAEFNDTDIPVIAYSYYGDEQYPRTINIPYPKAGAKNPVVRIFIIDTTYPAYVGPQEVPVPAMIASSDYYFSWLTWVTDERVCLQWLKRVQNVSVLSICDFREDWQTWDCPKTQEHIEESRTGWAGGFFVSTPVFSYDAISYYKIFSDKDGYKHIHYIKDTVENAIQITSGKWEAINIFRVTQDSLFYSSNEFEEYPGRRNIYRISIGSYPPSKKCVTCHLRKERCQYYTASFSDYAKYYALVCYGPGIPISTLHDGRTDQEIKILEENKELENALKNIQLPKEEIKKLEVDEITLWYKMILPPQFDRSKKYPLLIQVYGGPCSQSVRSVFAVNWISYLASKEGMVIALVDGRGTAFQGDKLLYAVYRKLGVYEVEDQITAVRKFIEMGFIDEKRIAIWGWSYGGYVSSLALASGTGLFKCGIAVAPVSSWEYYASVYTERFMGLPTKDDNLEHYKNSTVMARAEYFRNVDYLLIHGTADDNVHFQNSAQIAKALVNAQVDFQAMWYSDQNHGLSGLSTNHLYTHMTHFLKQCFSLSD
Protocol: FIG. 10. Fibroblast activation protein (FAP) cleaves S1 in vitro. The quenched probe Q1, incorporating the substrate S1, was incubated with recombinant FAP, and fluorescence activation was monitored over time (n=2 replicates; mean t s.d.).

CCc1cc2c(cc1N1CCC(N3CCOCC3)CC1)C(C)(C)c1[nH]c3cc(C#N)ccc3c1C2=O [alectinib] was tested, and the “reporters exhibiting differential enrichment in the urine of vehicle- versus alectinib-treated mice” value [1] was 12 of 14.

For “(QSY21)-eeeeeeeee-c(PEG2K)-oGGPQGIWGQG-rrrrrrrrr-k(Cy5) (QSY21-[dE][dE][dE][dE][dE][dE][dE][dE][dE][dC](PEG2K)[code o]GGPQGIWGQG[dR][dR][dR][dR][dR][dR][dR][dR][dR][dK](Cy5); reading uncertain; also: X11: 5-amino-3-oxopentanoyl, other spacer, or absent, printed as (QSY21)-eeeeeeeee-c(PEG2K)-oGGPQGIWGQG-rrrrrrrrr-k(Cy5)) [QZ1, PEGylated quenched probe]”, the “Cy5 fluorescence in explanted Eml4-Alk lungs relative to healthy lungs” value [2] was “significantly increased”, the “QZ1 staining in cells positive for mesenchymal cell markers” value ([3]; Eml4-Alk lungs, CD44, CD105, Ly-6A/E) was “increased QZ1 staining” and the “QZ1 staining in cells positive for mesenchymal cell markers” value ([3]; healthy lungs, separate experiment) was “more variable pattern”.

GGPQGIWGQC [S1] was tested, and the “cleavage by FAP in vitro” value [4] was “cleaves”.

Reference: patent publication US20250003968A1, “ACTIVITY-BASED CELL SORTING” (MASSACHUSETTS INSTITUTE OF TECHNOLOGY, priority 2021, published 2025)
